Measurements as given in the NIST ThermoML archive (doi:10.1021/je900266h).

Assay: refractive index (Na D-line) (dimensionless); wn = mass fraction of the nth substance listed
Details: 101 kPa, Liquid, Standard Abbe refractometry

CCO [ethanol] + O
refractive index
Details | 288.15 K | 298.15 K | 308.15 K | 318.15 K
w1 = 0.02468 | 1.33491 | 1.33402 | 1.33282 | 1.33124
w1 = 0.0538 | 1.33686 | 1.33587 | 1.33455 | 1.33301
w1 = 0.07815 | 1.33854 | 1.33765 | 1.33619 | 1.33449
w1 = 0.1014 | 1.34032 | 1.33915 | 1.33771 | 1.3358
w1 = 0.1249 | 1.34209 | 1.34095 | 1.33923 | 1.33736
w1 = 0.1528 | 1.34443 | 1.34294 | 1.34104 | 1.33895
w1 = 0.1778 | 1.34627 | 1.34475 | 1.34272 | 1.34054
w1 = 0.2036 | 1.34829 | 1.34651 | 1.34435 | 1.3418
w1 = 0.225 | 1.34976 | 1.34781 | 1.34551 | 1.34311
w1 = 0.247 | 1.35137 | 1.34934 | 1.34682 | 1.34418
w1 = 0.2699 | 1.35281 | 1.35056 | 1.3479 | 1.34519
w1 = 0.2955 | 1.35435 | 1.35212 | 1.34922 | 1.3464
w1 = 0.3241 | 1.35595 | 1.35363 | 1.35053 | 1.34772
w1 = 0.3468 | 1.3572 | 1.3546 | 1.35164 | 1.34853
w1 = 0.3723 | 1.35843 | 1.35567 | 1.35252 | 1.34932
w1 = 0.3959 | 1.3597 | 1.35665 | 1.35342 | 1.34997
w1 = 0.4255 | 1.36073 | 1.35765 | 1.35448 | 1.35103
w1 = 0.4462 | 1.36161 | 1.35831 | 1.35501 | 1.35147
w1 = 0.4735 | 1.36235 | 1.35919 | 1.35566 | 1.35212
w1 = 0.4969 | 1.36316 | 1.35969 | 1.3562 | 1.35251
w1 = 0.5239 | 1.36378 | 1.36042 | 1.35667 | 1.35301
w1 = 0.5458 | 1.36431 | 1.36078 | 1.35731 | 1.3533
w1 = 0.5709 | 1.36482 | 1.36134 | 1.3577 | 1.35369
w1 = 0.5972 | 1.36547 | 1.36186 | 1.35801 | 1.35385
w1 = 0.6203 | 1.36582 | 1.36199 | 1.35825 | 1.35417
w1 = 0.6467 | 1.36603 | 1.36243 | 1.35839 | 1.3543
w1 = 0.6694 | 1.36636 | 1.36263 | 1.35867 | 1.35455
w1 = 0.6959 | 1.36665 | 1.36288 | 1.35875 | 1.35454
w1 = 0.7187 | 1.36663 | 1.36306 | 1.35892 | 1.35469
w1 = 0.7494 | 1.36702 | 1.36313 | 1.35895 | 1.35471
w1 = 0.7672 | 1.36703 | 1.36317 | 1.35902 | 1.35475
w1 = 0.7993 | 1.36694 | 1.36318 | 1.35879 | 1.35484
w1 = 0.8187 | 1.36705 | 1.3632 | 1.35887 | 1.35478
w1 = 0.8451 | 1.36683 | 1.36289 | 1.3586 | 1.35457
w1 = 0.867 | 1.36684 | 1.36278 | 1.35844 | 1.35421
w1 = 0.9028 | 1.36637 | 1.3623 | 1.35782 | 1.35374
w1 = 0.9235 | 1.36603 | 1.36196 | 1.35743 | 1.35333
w1 = 0.9481 | 1.36528 | 1.36123 | 1.35677 | 1.35255
w1 = 0.9752 | 1.36454 | 1.36037 | 1.3559 | 1.35171
w1 = 1 | 1.36344 | 1.35922 | 1.35477 | 1.35068
